Measured values from the OligoGym collection.
Bases are written 5' to 3'; sugars and linkages follow in the same order, as letters with counts (s phosphorothioate, o phosphodiester; PS: all linkages phosphorothioate). C may stand for cytosine or 5-methylcytosine; the collection does not tell. l = locked nucleic acid (LNA); d = 2'-deoxy (DNA)

Target: HIF1A
Test: HeLa, 100 nM transfected, 24 h, mean of 3
Settings: ASO

| Sequence | caspase activation (% of PBS control) |
| --- | --- |
| GTTACTGCCTTCTTAC (sugars lldldddddddllddl, PS) | 196 |
| GTTACTGCCTTCTTAC (sugars lldldddddddlldll, PS) | 163 |
| GTTACTGCCTTCTTAC (sugars lldldddddddllldl, PS) | 307 |
| GTTACTGCCTTCTTAC (sugars lldllddddddddldl, PS) | 291 |
| GTTACTGCCTTCTTAC (sugars lldlldddddddlddl, PS) | 278 |
| GTTACTGCCTTCTTAC (sugars lldlldddddddldll, PS) | 293 |
| GTTACTGCCTTCTTAC (sugars lldlldddddddlldl, PS) | 363 |
| GTTACTGCCTTCTTAC (sugars lldllddddddldddl, PS) | 260 |
| GTTACTGCCTTCTTAC (sugars lldllddddddlddll, PS) | 261 |
| GTTACTGCCTTCTTAC (sugars lldllddddddldldl, PS) | 294 |
| GTTACTGCCTTCTTAC (sugars lldllddddddldlll, PS) | 278 |
| GTTACTGCCTTCTTAC (sugars lldllddddddllddl, PS) | 356 |
| GTTACTGCCTTCTTAC (sugars lldllddddddlldll, PS) | 289 |
| GTTACTGCCTTCTTAC (sugars lldllddddddllldl, PS) | 506 |
| GTTACTGCCTTCTTAC (sugars lllddddddddldldl, PS) | 233 |
| GTTACTGCCTTCTTAC (sugars llldlddddddddldl, PS) | 271 |
| GTTACTGCCTTCTTAC (sugars llldldddddddlddl, PS) | 277 |
| GTTACTGCCTTCTTAC (sugars llldldddddddldll, PS) | 274 |
| GTTACTGCCTTCTTAC (sugars llldldddddddlldl, PS) | 341 |
| GTTACTGCCTTCTTAC (sugars llldlddddddldddl, PS) | 272 |
| GTTACTGCCTTCTTAC (sugars llldlddddddlddll, PS) | 283 |
| GTTACTGCCTTCTTAC (sugars llldlddddddldldl, PS) | 316 |
| GTTACTGCCTTCTTAC (sugars llldlddddddldlll, PS) | 273 |
| GTTACTGCCTTCTTAC (sugars llldlddddddllddl, PS) | 308 |
| GTTACTGCCTTCTTAC (sugars llldlddddddlldll, PS) | 307 |
| GTTACTGCCTTCTTAC (sugars llldlddddddllldl, PS) | 485 |

| Sequence | caspase activation (% of PBS control) |
| --- | --- |
| GTTACTGCCTTCTTAC (sugars lllldddddddldldl, PS) | 281 |
| GTTACTGCCTTCTTAC (sugars lllllddddddldldl, PS) | 467 |
| TACTGCCTTCTTA (sugars l1 d1 l1 d7 l3, PS) | 494 |
| TACTGCCTTCTTA (sugars l1 d1 l1 d8 l2, PS) | 277 |
| TACTGCCTTCTTA (sugars l1 d1 l1 d9 l1, PS) | 193 |
| TACTGCCTTCTTA (sugars l1 d1 l2 d6 l3, PS) | 585 |
| TACTGCCTTCTTA (sugars l1 d1 l2 d7 l2, PS) | 448 |
| TACTGCCTTCTTA (sugars l1 d1 l2 d8 l1, PS) | 270 |
| TACTGCCTTCTTA (sugars l1 d2 l1 d6 l3, PS) | 246 |
| TACTGCCTTCTTA (sugars l1 d2 l1 d7 l2, PS) | 156 |
| TACTGCCTTCTTA (sugars l1 d2 l1 d8 l1, PS) | 118 |
| TACTGCCTTCTTA (sugars l1 d9 l1 d1 l1, PS) | 142 |
| TACTGCCTTCTTA (sugars l1 d9 l3, PS) | 158 |
| TACTGCCTTCTTA (sugars l1 d10 l2, PS) | 130 |
| TACTGCCTTCTTA (sugars l1 d11 l1, PS) | 112 |
| TACTGCCTTCTTA (sugars l2 d1 l1 d6 l3, PS) | 427 |
| TACTGCCTTCTTA (sugars l2 d1 l1 d7 l2, PS) | 295 |
| TACTGCCTTCTTA (sugars l2 d1 l1 d8 l1, PS) | 222 |
| TACTGCCTTCTTA (sugars l2 d8 l1 d1 l1, PS) | 223 |
| TACTGCCTTCTTA (sugars l2 d8 l3, PS) | 363 |
| TACTGCCTTCTTA (sugars l2 d9 l2, PS) | 184 |
| TACTGCCTTCTTA (sugars l2 d10 l1, PS) | 152 |
| TACTGCCTTCTTA (sugars l3 d7 l1 d1 l1, PS) | 368 |
| TACTGCCTTCTTA (sugars l3 d7 l3, PS) | 489 |
| TACTGCCTTCTTA (sugars l3 d8 l2, PS) | 317 |
| TACTGCCTTCTTA (sugars l3 d9 l1, PS) | 286 |

| Sequence | caspase activation (% of PBS control) |
| --- | --- |
| TACTGCCTTCTTA (sugars l4 d6 l1 d1 l1, PS) | 508 |
| TACTGCCTTCTTA (sugars l4 d6 l3, PS) | 404 |
| TACTGCCTTCTTA (sugars l4 d7 l2, PS) | 594 |
| TACTGCCTTCTTA (sugars l4 d8 l1, PS) | 435 |
| TACTGCCTTCTTA (sugars lddlddddddldl, PS) | 133 |
| TACTGCCTTCTTA (sugars ldldddddddldl, PS) | 237 |
| TACTGCCTTCTTA (sugars ldllddddddldl, PS) | 317 |
| TACTGCCTTCTTA (sugars lldlddddddldl, PS) | 293 |
| TGGCAAGCATCCT (sugars l1 d1 l1 d7 l3, PS) | 127 |
| TGGCAAGCATCCT (sugars l1 d1 l1 d8 l2, PS) | 145 |
| TGGCAAGCATCCT (sugars l1 d1 l1 d9 l1, PS) | 160 |
| TGGCAAGCATCCT (sugars l1 d1 l2 d6 l3, PS) | 260 |
| TGGCAAGCATCCT (sugars l1 d1 l2 d7 l2, PS) | 353 |
| TGGCAAGCATCCT (sugars l1 d1 l2 d8 l1, PS) | 327 |
| TGGCAAGCATCCT (sugars l1 d2 l1 d6 l3, PS) | 112 |
| TGGCAAGCATCCT (sugars l1 d2 l1 d7 l2, PS) | 157 |
| TGGCAAGCATCCT (sugars l1 d2 l1 d8 l1, PS) | 178 |
| TGGCAAGCATCCT (sugars l1 d9 l1 d1 l1, PS) | 242 |
| TGGCAAGCATCCT (sugars l1 d9 l3, PS) | 330 |
| TGGCAAGCATCCT (sugars l1 d10 l2, PS) | 253 |
| TGGCAAGCATCCT (sugars l1 d11 l1, PS) | 123 |
| TGGCAAGCATCCT (sugars l2 d1 l1 d6 l3, PS) | 259 |
| TGGCAAGCATCCT (sugars l2 d1 l1 d7 l2, PS) | 361 |
| TGGCAAGCATCCT (sugars l2 d1 l1 d8 l1, PS) | 383 |
| TGGCAAGCATCCT (sugars l2 d8 l1 d1 l1, PS) | 407 |
| TGGCAAGCATCCT (sugars l2 d8 l3, PS) | 315 |

| Sequence | caspase activation (% of PBS control) |
| --- | --- |
| TGGCAAGCATCCT (sugars l2 d9 l2, PS) | 434 |
| TGGCAAGCATCCT (sugars l2 d10 l1, PS) | 364 |
| TGGCAAGCATCCT (sugars l3 d7 l1 d1 l1, PS) | 268 |
| TGGCAAGCATCCT (sugars l3 d7 l3, PS) | 249 |
| TGGCAAGCATCCT (sugars l3 d8 l2, PS) | 217 |
| TGGCAAGCATCCT (sugars l3 d9 l1, PS) | 287 |
| TGGCAAGCATCCT (sugars l4 d6 l1 d1 l1, PS) | 480 |
| TGGCAAGCATCCT (sugars l4 d6 l3, PS) | 361 |
| TGGCAAGCATCCT (sugars l4 d7 l2, PS) | 447 |
| TGGCAAGCATCCT (sugars l4 d8 l1, PS) | 471 |
| TGGCAAGCATCCT (sugars lddlddddddldl, PS) | 132 |
| TGGCAAGCATCCT (sugars ldldddddddldl, PS) | 170 |
| TGGCAAGCATCCT (sugars ldllddddddldl, PS) | 377 |
| TGGCAAGCATCCT (sugars lldlddddddldl, PS) | 369 |
| TGGCAAGCATCCTGTA (sugars l1 d1 l1 d8 l5, PS) | 417 |
| TGGCAAGCATCCTGTA (sugars l1 d1 l1 d9 l4, PS) | 379 |
| TGGCAAGCATCCTGTA (sugars l1 d1 l1 d10 l3, PS) | 188 |
| TGGCAAGCATCCTGTA (sugars l1 d1 l1 d11 l2, PS) | 135 |
| TGGCAAGCATCCTGTA (sugars l1 d1 l1 d12 l1, PS) | 180 |
| TGGCAAGCATCCTGTA (sugars l1 d1 l2 d7 l5, PS) | 415 |
| TGGCAAGCATCCTGTA (sugars l1 d1 l2 d8 l4, PS) | 398 |
| TGGCAAGCATCCTGTA (sugars l1 d1 l2 d9 l3, PS) | 479 |
| TGGCAAGCATCCTGTA (sugars l1 d1 l2 d10 l2, PS) | 342 |
| TGGCAAGCATCCTGTA (sugars l1 d1 l2 d11 l1, PS) | 324 |
